Reference: ChEMBL document CHEMBL1201862, “PubChem BioAssay data set” (2004)
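Step 1: Grow cells in 96-well plates. Step 2: Expose to compound for 48 hours at 5 concentrations. Step 3: Interpolate endpoints linearly; if unreached, use highest concentration. GI50 = concentration required for 50% inhibition of growth.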 Activity calls are given as the source filed them. Cut-off read from the data, not from the text of the source: active = GI50 up to about 1.1 µM and inactive = higher.

What was measured:
Test in all cases: inhibition of tumour cell growth, NCI panel, 48 h
SK-OV-3 = test system: SK-OV-3
NCI/ADR-RES = test system: NCI/ADR-RES
MDA-MB-231 = test system: MDA-MB-231
Malme-3M = test system: Malme-3M
SN12C = test system: SN12C
A498 = test system: A498
SW-620 = test system: SW-620
HCT-15 = test system: HCT-15
UACC-62 = test system: UACC-62
ACHN = test system: ACHN
UACC-257 = test system: UACC-257
Hs-578T = test system: Hs-578T
MDA-MB-435 = test system: MDA-MB-435
RXF 393 = test system: RXF 393
SNB-19 = test system: SNB-19
BT-549 = test system: BT-549
RPMI-8226 = test system: RPMI-8226
KM12 = test system: KM12
SF-295 = test system: SF-295
T47D = test system: T47D

Row | Structure (SMILES) | GI50 (SK-OV-3) | GI50 (NCI/ADR-RES) | GI50 (MDA-MB-231) | GI50 (Malme-3M) | GI50 (SN12C) | GI50 (A498) | GI50 (SW-620) | GI50 (HCT-15) [µM] | GI50 (UACC-62) | GI50 (ACHN) | GI50 (UACC-257) | GI50 (Hs-578T) | GI50 (MDA-MB-435) | GI50 (RXF 393) | GI50 (SNB-19) | GI50 (BT-549) | GI50 (RPMI-8226) | GI50 (KM12) | GI50 (SF-295) | GI50 (T47D)
1 | C[n+]1c(-c2ccc(/C=N/NC(=O)C(=O)N/N=C/c3ccc(-c4cn5ccccc5[n+]4C)cc3)cc2)cn2ccccc21 | > 100 µM (inactive) | > 100 µM (inactive) | > 100 µM (inactive) | > 100 µM (inactive) | > 100 µM (inactive) | > 100 µM (inactive) | > 100 µM (inactive) | > 100 | > 100 µM (inactive) | > 100 µM (inactive) | > 100 µM (inactive) | > 100 µM (inactive) | > 100 µM (inactive) | > 100 µM (inactive) | > 100 µM (inactive) | > 100 µM (inactive) | > 100 µM (inactive) | > 100 µM (inactive) | – | –
2 | COc1ccc(-c2c(C#N)c(-c3ccc(C)cc3)n(NS(=O)(=O)c3ccccc3)c(=O)c2C#N)cc1 | 84.3 µM (inactive) | 41.5 µM (inactive) | > 100 µM (inactive) | > 100 µM (inactive) | 65.3 µM (inactive) | 59 µM (inactive) | 46.7 µM (inactive) | 39.3 | 38.5 µM (inactive) | 45 µM (inactive) | > 100 µM (inactive) | 33.7 µM (inactive) | 73.6 µM (inactive) | 36.2 µM (inactive) | 58.5 µM (inactive) | 25.2 µM (inactive) | 13.3 µM (inactive) | 46.3 µM (inactive) | 32.7 µM (inactive) | –
3 | O=C1OCCC12CN(Cc1ccccc1)N=N2 (centres undefined) | > 100 µM (inactive) | > 100 µM (inactive) | > 100 µM (inactive) | 12.1 µM (inactive) | > 100 µM (inactive) | > 100 µM (inactive) | > 100 µM (inactive) | > 100 | > 100 µM (inactive) | 29.9 µM (inactive) | – | – | > 100 µM (inactive) | > 100 µM (inactive) | > 100 µM (inactive) | – | > 100 µM (inactive) | > 100 µM (inactive) | > 100 µM (inactive) | > 100 µM (inactive)
4 | CC1CNC(NS(=O)(=O)c2cc(C(=O)Nc3ccccc3)c(Cl)cc2S)=NN1 (centres undefined) | 81.5 µM (inactive) | > 100 µM (inactive) | > 100 µM (inactive) | 31.2 µM (inactive) | > 100 µM (inactive) | 17.7 µM (inactive) | 40.6 µM (inactive) | 33.8 | 43.2 µM (inactive) | 69 µM (inactive) | > 100 µM (inactive) | – | 17.7 µM (inactive) | – | 57 µM (inactive) | 97.3 µM (inactive) | 31.4 µM (inactive) | 33.3 µM (inactive) | 38.5 µM (inactive) | –
5 | COc1ccc2c(c1)c1c3c(ccc4ncn2c43)N(CCN(C)C)CCN=1 | 0.908 µM (active) | 0.438 µM (active) | 0.476 µM (active) | 1.2 µM (inactive) | 0.316 µM (active) | 1.42 µM (inactive) | 0.146 µM (active) | 0.303 | 1.23 µM (inactive) | 0.701 µM (active) | 1.85 µM (inactive) | 1.06 µM (active) | 0.378 µM (active) | 1.12 µM (active) | 0.405 µM (active) | – | 1.48 µM (inactive) | 0.374 µM (active) | 0.494 µM (active) | 1.52 µM (inactive)
6 | CN(C)C(=O)Nc1cc2c3c(c1)CCCN3CCC2 | > 10 µM (inactive) | > 10 µM (inactive) | > 10 µM (inactive) | > 10 µM (inactive) | > 10 µM (inactive) | 4.57 µM (inactive) | > 10 µM (inactive) | > 10 | > 10 µM (inactive) | > 10 µM (inactive) | > 10 µM (inactive) | > 10 µM (inactive) | > 10 µM (inactive) | > 10 µM (inactive) | > 10 µM (inactive) | – | > 10 µM (inactive) | > 10 µM (inactive) | > 10 µM (inactive) | > 10 µM (inactive)
7 | COc1ccc(/C=N/NC(=O)C2=C(N)N(c3ccccc3)C(=C(C#N)C#N)S2)cc1 | 57 µM (inactive) | > 100 µM (inactive) | 79.6 µM (inactive) | > 100 µM (inactive) | > 100 µM (inactive) | 22.6 µM (inactive) | > 100 µM (inactive) | > 100 | > 100 µM (inactive) | > 100 µM (inactive) | > 100 µM (inactive) | > 100 µM (inactive) | > 100 µM (inactive) | – | 70 µM (inactive) | > 100 µM (inactive) | > 100 µM (inactive) | > 100 µM (inactive) | 45 µM (inactive) | –
8 | Cn1c(=O)c2[nH]c(Nc3cccc(Cl)c3)nc2n(C)c1=O | 6.17 µM (inactive) | – | 7.48 µM (inactive) | 3.65 µM (inactive) | 5.77 µM (inactive) | – | 5.78 µM (inactive) | 4.99 | 3.17 µM (inactive) | – | 4.18 µM (inactive) | – | 3.82 µM (inactive) | 2.05 µM (inactive) | – | – | 2.49 µM (inactive) | 4.78 µM (inactive) | 4.84 µM (inactive) | 2.86 µM (inactive)
9 | O=C1c2cc(Cc3ccccc3)c(=O)c(Cc3ccccc3)cc2C(=O)c2cc(Cc3ccccc3)c(=O)c(Cc3ccccc3)cc21 | – | > 100 µM (inactive) | > 100 µM (inactive) | > 100 µM (inactive) | > 100 µM (inactive) | > 100 µM (inactive) | > 100 µM (inactive) | > 100 | – | > 100 µM (inactive) | > 100 µM (inactive) | > 100 µM (inactive) | > 100 µM (inactive) | 24.4 µM (inactive) | > 100 µM (inactive) | > 100 µM (inactive) | > 100 µM (inactive) | > 100 µM (inactive) | > 100 µM (inactive) | –
10 | CN(C)CCCNC(=O)c1cc(NC(=O)c2cc(NC(=O)[C@H]3C[C@@H]3C(=O)Nc3cc(C(=O)Nc4cc(C(=O)NCCCN(C)C)n(C)c4)n(C)c3)cn2C)cn1C | – | > 100 µM (inactive) | > 100 µM (inactive) | > 100 µM (inactive) | > 100 µM (inactive) | – | > 100 µM (inactive) | > 100 | – | > 100 µM (inactive) | > 100 µM (inactive) | – | > 100 µM (inactive) | – | > 100 µM (inactive) | > 100 µM (inactive) | > 100 µM (inactive) | > 100 µM (inactive) | > 100 µM (inactive) | –
11 | CNC(=O)NCCN1CC2CCC(CC2)C1 | > 10 µM (inactive) | > 10 µM (inactive) | > 10 µM (inactive) | > 10 µM (inactive) | > 10 µM (inactive) | > 10 µM (inactive) | > 10 µM (inactive) | > 10 | > 10 µM (inactive) | > 10 µM (inactive) | > 10 µM (inactive) | > 10 µM (inactive) | > 10 µM (inactive) | > 10 µM (inactive) | > 10 µM (inactive) | – | > 10 µM (inactive) | > 10 µM (inactive) | > 10 µM (inactive) | > 10 µM (inactive)
12 | COC(=S)OC1CC(n2cnc3c(=O)[nH]cnc32)OC1CO[Si](C)(C)C(C)(C)C (centres undefined) | > 100 µM (inactive) | > 100 µM (inactive) | > 100 µM (inactive) | > 100 µM (inactive) | > 100 µM (inactive) | > 100 µM (inactive) | > 100 µM (inactive) | > 100 | > 100 µM (inactive) | > 100 µM (inactive) | > 100 µM (inactive) | > 100 µM (inactive) | > 100 µM (inactive) | > 100 µM (inactive) | > 100 µM (inactive) | – | > 100 µM (inactive) | > 100 µM (inactive) | > 100 µM (inactive) | –
13 | CC(C)C(=S)N(C)O | 55.3 µM (inactive) | – | – | 53.7 µM (inactive) | 26.6 µM (inactive) | 19.1 µM (inactive) | 1.52 µM (inactive) | 24.2 | 10.1 µM (inactive) | 31 µM (inactive) | 29.1 µM (inactive) | – | – | 98.9 µM (inactive) | > 29.2 µM (inactive) | – | 0.518 µM (active) | 17.7 µM (inactive) | 16.8 µM (inactive) | –
14 | COc1cc2nc(Sc3c([N+](=O)[O-])ncn3C)[nH]c2cc1OC | 79.4 µM (inactive) | – | – | 56.2 µM (inactive) | 16.3 µM (inactive) | 78 µM (inactive) | 26 µM (inactive) | 19.4 | 24.3 µM (inactive) | 54.3 µM (inactive) | 28.6 µM (inactive) | – | – | 16.1 µM (inactive) | 26.1 µM (inactive) | – | 22.3 µM (inactive) | 46.7 µM (inactive) | > 100 µM (inactive) | –
15 | O=C1NC(Cc2c[nH]c3ccccc23)C(=O)N2C(C3CCCCC3)c3[nH]c4ccccc4c3C[C@@H]12 (some centres undefined) | – | 11.7 µM (inactive) | 15.1 µM (inactive) | 13.1 µM (inactive) | 8.26 µM (inactive) | 15.2 µM (inactive) | 15.7 µM (inactive) | 12.4 | 15.3 µM (inactive) | 17.7 µM (inactive) | 12.1 µM (inactive) | 2.18 µM (inactive) | 11 µM (inactive) | 5.98 µM (inactive) | 22.3 µM (inactive) | 14.9 µM (inactive) | 9.02 µM (inactive) | 11.8 µM (inactive) | 24 µM (inactive) | –
16 | COC(=O)[C@@H]1C(=O)O[C@@H](c2ccc(OC)c(OC)c2OC)[C@@H]1C(=O)OC.COC(=O)[C@H]1C(=O)O[C@@H](c2ccc(OC)c(OC)c2OC)[C@@H]1C(=O)OC | > 100 µM (inactive) | – | – | > 100 µM (inactive) | > 100 µM (inactive) | > 100 µM (inactive) | > 100 µM (inactive) | > 100 | > 100 µM (inactive) | > 100 µM (inactive) | > 100 µM (inactive) | – | – | > 100 µM (inactive) | > 100 µM (inactive) | – | > 100 µM (inactive) | > 100 µM (inactive) | > 100 µM (inactive) | –
